PMC12131194, “Rational design, synthesis, and evaluation of novel polypharmacological compounds targeting NaV1.5, KV1.5, and K2P channels for atrial fibrillation” (The Journal of Biological Chemistry, 2025)

Target: T1, human Kv1.5 (Homo sapiens, UniProt P22460)
T1 construct: KV1.5 (NM_002234), and TASK-1 (NM_002246); expressed in transfected cells; host or cells: HEK-293 (transient transfection)
Experiment: Whole-cell patch-clamp in transfected HEK-293 cells, KV1.5
Format: cell-based
Conditions: 10 μM and 100 μM, +40 mV
Description: The human embryonic kidney 293 (HEK-293) cell line was obtained from the American Type Culture Collection. HEK-293 cells were cultured in Dulbecco’s modified Eagle’s medium (DMEM-F12, Invitrogen Life Technologies) supplemented with 5% (v/v) fetal bovine serum (FBS) (Thermo Fisher Scientific) and 1% antibiotics (penicillin 100 U/ml y streptomycin 100 μg/ml) (Gibco, Thermo Fisher). The cells were maintained at 37 °C and 5% CO2 atmosphere.
For the electrophysiological experiments, HEK-293 cells were transiently transfected with cDNA encoding human NaV1.5 (plasmid 145,374, Addgene), KV1.5 (NM_002234), and TASK-1 (NM_002246). […] The cells were incubated for 4 h in transfection medium OptiMEM (Invitrogen). […]
For Nav1.5, the effect of 6f at both concentrations was tested using a repetitive single test voltage pulse at −10 mV (during 20 ms) from a holding potential of −80 mV, with intervals of 5s between pulses. For Kv1.5 and TASK-1, ramp voltage protocols were applied with pulse intervals of 20 s, and the currents were analyzed at +40 mV. […]
After recording currents with stable amplitudes, the cells were treated with 6f and applied from the bath solution. Currents were continuously recorded during repetitive pulses until a stable effect was achieved. […] The inhibition percentage was calculated as follows: Inℎibition (%) = 100 ∗ (Icontrol − Idrug)/Icontrol.

T1 sequence (P22460 whole entry): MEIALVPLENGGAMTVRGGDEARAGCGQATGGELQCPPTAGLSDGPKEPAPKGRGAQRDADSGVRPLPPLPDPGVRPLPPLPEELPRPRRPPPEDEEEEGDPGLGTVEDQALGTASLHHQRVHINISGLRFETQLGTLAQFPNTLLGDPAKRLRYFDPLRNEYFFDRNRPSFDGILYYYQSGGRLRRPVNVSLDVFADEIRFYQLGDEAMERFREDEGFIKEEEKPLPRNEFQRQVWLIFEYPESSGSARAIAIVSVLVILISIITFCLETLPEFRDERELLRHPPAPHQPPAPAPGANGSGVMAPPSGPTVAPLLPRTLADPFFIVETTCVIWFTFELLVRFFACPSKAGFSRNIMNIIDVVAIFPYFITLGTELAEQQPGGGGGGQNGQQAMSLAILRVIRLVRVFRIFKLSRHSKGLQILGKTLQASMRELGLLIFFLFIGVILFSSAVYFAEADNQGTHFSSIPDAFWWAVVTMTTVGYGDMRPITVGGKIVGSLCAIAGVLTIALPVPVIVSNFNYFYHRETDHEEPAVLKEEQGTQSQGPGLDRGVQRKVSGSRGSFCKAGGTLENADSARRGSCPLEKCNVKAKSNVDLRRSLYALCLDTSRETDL

CCCCN(CCCC)CC(=O)Nc1ccc(OC)cc1OC [Compound 6f, 2-(dibutylamine)-N-(2,4-dimethoxiphenyl)acetamide]
Blockade of KV1.5 in HEK cells: significant blockade by 6f only at 100 μM
